# Data as given in ChEMBL document CHEMBL1140455, “On the search of new I2-IBS aliphatic ligands: bis-guanidino carbonyl derivatives” (Bioorg Med Chem Lett, 2007).
# Experiment: Displacement of [3H]2-BFI from I2-IBS in human frontal cortex membranes
# Format: cell membranes, Membrane
row,Structure (SMILES),Log Ki
1,N=C(N)NC(=O)CCCCCCCCCCCCCCC(=O)NC(=N)N,-5.7
2,N=C(N)NCCCCCCCCCCCCNC(=N)N,-7.48
3,c1ccc2c(c1)OCC(C1=NCCN1)O2 (stereo not drawn) [IDAZOXAN],-7.43
4,N=C(N)NC(=O)CCCCCCCCC(=O)NC(=N)N,-6.11

# Results, then the molecule that gave them:
row,Log Ki,Structure (SMILES)
1,-5.06,N=C(N)NC(=O)CCCCCCCCCCCC(=O)NC(=N)N
2,-5.2,N=C(N)NC(=O)CCCCCCCCCC(=O)NC(=N)N
3,-5.69,N=C(N)NC(=O)CCCCCCCCCCC(=O)NC(=N)N
4,-5.91,N=C(N)NC(=O)CCCCCCCCCCCCC(=O)NC(=N)N
